This note sets out measurements from patent US20200288710A1, “SUBSTITUTED SULPHONAMIDES FOR CONTROLLING ANIMAL PESTS” (BAYER CROPSCIENCE AKTIENGESELLSCHAFT, priority 2016, published 2020).

Each structure is given as a SMILES string.

Common to all, as to assay type: in vivo
Assay [1] relates to Myzus persicae. The experiment in a line: Myzus persicae spray test (bell pepper plants). As to conditions: 144 h, after 6 days, read-out: efficacy (kill in %). As for the experimental part: Myzus persicae—Spray Test Solvent: 14 parts by weight of dimethylformamide Emulsifier: alkylaryl polyglycol ether To produce a suitable preparation of active compound, 1 part by weight of active compound is dissolved using the specified parts by weight of solvent and made up with water containing an emulsifier concentration of 1000 ppm until the desired concentration is attained. To produce further test concentrations, the formulation is diluted with emulsifier-containing water. If the addition of ammonium salts or/and penetrants is required, these are each added in a concentration of 1000 ppm to the formulation solution. Bell pepper plants (Capsicum annuum) severely infested with the green peach aphid (Myzus persicae) are treated by spraying with the active compound preparation in the desired concentration. After 6 days, the kill in % is determined. 100% means that all of the aphids have been killed; 0% means that none of the aphids have been killed.

In assay [2] the test system is Myzus persicae. The assay is described as follows: Myzus persicae oral test. As to conditions: 120 h, 20 ppm, oral uptake, after 5 days, read-out: efficacy. Summed up:
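Aphids of mixed ages imbibe, through parafilm, compound solution (acetone stock, water-diluted) combined with sugar-supplemented IPL41 medium to 200 μl. Efficacy read at day 5 as percent killed, 0% meaning no deaths.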

The subject of another assay is Meloidogyne incognita. The experiment in a line: Meloidogyne incognita test. As to conditions: 336 h, lettuce, after 14 days, read-out: nematicidal efficacy (formation of galls). Summed up: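 Gall formation on lettuce roots scored after 14 days: 0% means gall count equals untreated control, 100% means none. Sand vessels held the compound (acetone concentrate diluted in water), southern root-knot nematode egg/larvae suspension and lettuce seeds.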

For the next assay, the system named is Aphis gossypii. The experiment in a line: Aphis gossypii spray test. Particulars: 100 ppm, cotton plants, after 6 days. As for the experimental part: Aphis gossypii—Spray Test Solvent: 14 parts by weight of dimethylformamide Emulsifier: alkylaryl polyglycol ether To produce a suitable preparation of active compound, 1 part by weight of active compound is dissolved using the specified parts by weight of solvent and made up with water containing an emulsifier concentration of 1000 ppm until the desired concentration is attained. To produce further test concentrations, the formulation is diluted with emulsifier-containing water. If the addition of ammonium salts or/and penetrants is required, these are each added in a concentration of 1000 ppm to the formulation solution. Cotton plants (Gossypium hirsutum) which are heavily infested by the cotton aphid (Aphis gossypii) are sprayed with an active compound preparation of the desired concentration. After 6 days, the kill in % is determined. 100% means that all the aphids have been killed; 0% means that no aphids have been killed.

For assay [3], the system named is Myzus persicae. The experiment in a line: Myzus persicae spray test (Chinese cabbage leaf discs). As to conditions: foliar, 120 h, 500 g/ha, after 5-6 days, read-out: efficacy. Summed up:
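Formulated compound in acetone/dimethylformamide, diluted in water with 1000 ppm emulsifier, was sprayed onto Brassica pekinensis leaf discs carrying mixed-stage Myzus persicae. Percent mortality was read 5-6 days later (0% = no aphids killed, 100% = all killed).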

The test system of another assay is Lucilia cuprina. The assay is described as follows: Lucilia cuprina test. As to conditions: 48 h, L1 larvae, after 2 days, read-out: efficacy (kill in %). In short, it runs like this: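 About 20 L1 larvae were held on minced horsemeat treated with compound, which was formulated in DMSO and diluted with water. Percent kill was scored after 2 days.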
Another assay relates to Musca domestica. The assay is described as follows: Musca domestica test. Particulars: 48 h, adult houseflies, after 2 days, read-out: efficacy (kill in %). As for the experimental part:
Musca domestica Test Solvent: dimethyl sulphoxide To produce a suitable preparation of active compound, 10 mg of active compound are mixed with 0.5 ml of dimethyl sulphoxide, and the concentrate is diluted with water to the desired concentration. Vessels containing a sponge treated with sugar solution and the active compound preparation of the desired concentration are populated with 10 adult houseflies (Musca domestica). After 2 days, the kill in % is determined. 100% means that all of the flies have been killed; 0% means that none of the flies have been killed.

In another assay the test system is Phaedon cochleariae. The experiment in a line: Phaedon cochleariae spray test. As to conditions: foliar, 168 h, Chinese cabbage leaf discs, larvae, after 7 days, read-out: efficacy. Summed up:
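Mortality of beetle larvae scored at day 7, expressed as % (0% none killed, 100% all). Formulation: compound in solvent, made up and further diluted with emulsifier-containing water (1000 ppm emulsifier).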

Another assay deals with Tetranychus urticae. The assay is described as follows: Tetranychus urticae spray test, OP-resistant. As to conditions: foliar, 144 h, bean leaf discs, after 6 days, read-out: efficacy. As for the experimental part:
Tetranychus urticae—Spray Test, OP-Resistant
To produce a suitable preparation of active compound, 1 part by weight of active compound is dissolved using the specified parts by weight of solvent and made up with water containing an emulsifier concentration of 1000 ppm until the desired concentration is attained. To produce further test concentrations, the formulation is diluted with emulsifier-containing water.
Discs of bean leaves (Phaseolus vulgaris) infested with all stages of the greenhouse red spider mite (Tetranychus urticae) are sprayed with an active compound preparation of the desired concentration.
After 6 days, the efficacy in % is determined. 100% means that all the spider mites have been killed; 0% means that no spider mites have been killed.

The next assay concerns Boophilus microplus. The experiment in a line: Boophilus microplus injection test. As to conditions: 20 μg/animal, injection into engorged adult female cattle ticks, after 7 days. As for the experimental part: Boophilus microplus—Injection Test Solvent: dimethyl sulphoxide To produce a suitable preparation of active compound, 10 mg of active compound are mixed with 0.5 ml of solvent and the concentrate is diluted with solvent to the desired concentration. 1 μl of the active compound solution is injected into the abdomen of 5 engorged adult female cattle ticks (Boophilus microplus). The animals are transferred into dishes and kept in a climate-controlled room. Efficacy is assessed after 7 days by laying of fertile eggs. Eggs which are not externally visibly fertile are stored in a climate-controlled cabinet until the larvae hatch after about 42 days. An efficacy of 100% means that none of the ticks has laid any fertile eggs; 0% means that all the eggs are fertile.

Turning to `Cn1cc(C(=O)NS(=O)(=O)Cc2ccccc2)nc1-c1ccccc1Cl` [Example 60], in the assay on Myzus persicae [1], the pest or weed control at 100 ppm stood at 85%. Moreover, the pest or weed control at 20 ppm with Myzus persicae [2] and with Meloidogyne incognita was 100% each time.
As to `Cc1ccccc1S(=O)(=O)NC(=O)c1cn(C)c(-c2c(C)cccc2C)n1` [Example 478], the pest or weed control at 100 ppm in the assay with Myzus persicae [1] worked out at 99%. Further, the pest or weed control at 20 ppm is 100% in the assay on Myzus persicae [2] and 90% with Meloidogyne incognita.
`Cc1c(C(=O)NS(=O)(=O)c2ccccc2Cl)nc(-c2ccccc2Cl)n1C` [Example 103]: the pest or weed control at 20 ppm in the assay with Myzus persicae [2] and in the assay on Meloidogyne incognita was 100% in each case. Further, the “efficacy (kill in %)” value with Aphis gossypii is given as 98%.
Consider `Cc1ccc(C)c(S(=O)(=O)NC(=O)c2cn(C)c(-c3c(F)cccc3F)n2)c1` [Example 394], for which the pest or weed control at 500 g/ha in the assay with Myzus persicae [3] and in the assay with Phaedon cochleariae was 100% in each case. Besides, the pest or weed control at 100 ppm is 95% in the assay with Lucilia cuprina and 100% in the assay with Musca domestica. For the same compound, the pest or weed control at 20 ppm in the assay on Myzus persicae [2] was 100%; with Meloidogyne incognita, 90%.
As to `Cc1c(C(=O)NS(=O)(=O)c2ccccc2Br)nc(-c2c(F)cccc2F)n1C` [Example 195], the figures for the pest or weed control at 20 ppm in the assay with Myzus persicae [1] (20 ppm), in the assay with Myzus persicae [2] and in the assay on Meloidogyne incognita were 80%, 100% and 90%, respectively. Further, the pest or weed control at 500 g/ha amounted to 100% with Phaedon cochleariae and 90% in the assay on Tetranychus urticae.
Take `Cc1[nH]c(C(=O)NS(=O)(=O)c2ccccc2Br)nc1-c1c(F)cccc1F` [Example 146]: the pest or weed control at 100 ppm with Myzus persicae [1] stood at 90%.
`Cc1ccccc1S(=O)(=O)NC(=O)c1cn(C)c(-c2cccc(F)c2F)n1` [Example 518]: in the assay on Myzus persicae [1], the pest or weed control at 100 ppm was 95%. Also, the pest or weed control at 20 ppm with Myzus persicae [2] is 100%; with Meloidogyne incognita it was 90%.
As to `Cc1[nH]c(-c2ccc(F)cc2F)nc1C(=O)NS(=O)(=O)c1ccccc1Cl` [Example 616], the pest or weed control at 100 ppm with Myzus persicae [1] was determined as 97%. In addition, the pest or weed control at 20 ppm in the assay with Myzus persicae [2] and in the assay on Meloidogyne incognita was 100% in each case.
Turning to `Cc1c(C(=O)NS(=O)(=O)c2ccccc2Cl)nc(-c2c(F)cccc2F)n1C` [Example 194], the values for the pest or weed control at 20 ppm with Myzus persicae [2] and with Meloidogyne incognita were 100% and 90%, respectively. Also, the “efficacy (kill in %)” value with Aphis gossypii is recorded as 100%.
Regarding `Cc1nc(C)c(S(=O)(=O)NC(=O)c2cn(C)c(-c3c(F)cccc3F)n2)s1` [Example 347], the pest or weed control at 100 ppm in the assay with Myzus persicae [1] was found to be 90%. Further, the pest or weed control at 20 ppm in the assay with Myzus persicae [2] was 90%.
In the case of `CCn1cc(C(=O)NS(=O)(=O)c2cc(OC)ccc2Cl)nc1-c1ccccc1Cl` [Example 68], the figures for the pest or weed control at 100 ppm in the assay on Lucilia cuprina, in the assay on Myzus persicae [1] and in the assay with Musca domestica were 100%, 100% and 80%, respectively. The figures for the pest or weed control at 20 ppm in the assay on Myzus persicae [2] and with Meloidogyne incognita were 100% and 90%, respectively.
Take `Cc1ccccc1S(=O)(=O)NC(=O)c1cn(C)c(-c2ccccc2-c2ccccc2)n1` [Example 533]: the pest or weed control at 100 ppm with Myzus persicae [1] was determined as 90%. The pest or weed control at 20 ppm in the assay with Myzus persicae [2] was 100%.
`CCc1ccccc1S(=O)(=O)NC(=O)c1cn(C)c(-c2ccccc2Cl)n1` [Example 219]: the pest or weed control at 500 g/ha with Myzus persicae [3] was 100%. In addition, the pest or weed control at 100 ppm worked out at 100% in the assay with Lucilia cuprina and 85% with Musca domestica. Moreover, the “efficacy (laying of fertile eggs)” value in the assay on Boophilus microplus was 80%. The pest or weed control at 20 ppm is 100% with Myzus persicae [2] and 90% in the assay on Meloidogyne incognita.
`COc1ccccc1S(=O)(=O)NC(=O)c1cn(C)c(-c2ncccc2F)n1` [Example 538]: in the assay on Myzus persicae [1], the pest or weed control at 100 ppm worked out at 100%. Also, the pest or weed control at 20 ppm turned out to be 100% in the assay on Myzus persicae [2] and 90% with Meloidogyne incognita.
As to `Cc1ccccc1S(=O)(=O)NC(=O)c1cn(C)c(-c2ccc(Cl)c(Cl)c2)n1` [Example 536], the pest or weed control at 100 ppm in the assay with Myzus persicae [1] is 80%. Further, the figures for the pest or weed control at 20 ppm in the assay with Myzus persicae [2] and in the assay on Meloidogyne incognita were 100% and 90%, respectively.
With `Cc1[nH]c(-c2ccc(Cl)c(Cl)c2)nc1C(=O)NS(=O)(=O)C(C)C` [Example 237], the pest or weed control at 100 ppm in the assay with Myzus persicae [1] worked out at 90%. In addition, the pest or weed control at 20 ppm in the assay with Myzus persicae [2] turned out to be 100%.
Turning to `Cc1cccc(C)c1S(=O)(=O)NC(=O)c1cn(C)c(-c2c(F)cccc2F)n1` [Example 186], the pest or weed control at 500 g/ha in the assay with Myzus persicae [3] and in the assay with Phaedon cochleariae was 100% throughout. Moreover, the pest or weed control at 100 ppm is 100% in the assay with Lucilia cuprina and 85% in the assay on Musca domestica. For the same compound, the pest or weed control at 20 ppm worked out at 100% with Myzus persicae [2] and 90% in the assay with Meloidogyne incognita.
As to `CCn1c(C(=O)NS(=O)(=O)c2ccccc2Br)nc(-c2c(F)cccc2F)c1C` [Example 415], the pest or weed control at 100 ppm with Myzus persicae [1] was determined as 100%. Besides, the pest or weed control at 20 ppm in the assay on Myzus persicae [2] and in the assay on Meloidogyne incognita was 100% throughout.
Turning to `Cc1ccc(C)c(S(=O)(=O)NC(=O)c2cn(C)c(-c3cccc4ccccc34)n2)c1` [Example 502], the pest or weed control at 500 g/ha in the assay with Phaedon cochleariae amounted to 100%. Further, the pest or weed control at 20 ppm with Myzus persicae [2] and in the assay with Meloidogyne incognita was 100% in each case. Moreover, in the assay on Aphis gossypii, the “efficacy (kill in %)” value is 95%.
